# Test: DPPH radical scavenging antioxidant test
# Settings: 517 nm; for Inhibition (radical scavenging inhibition): 0.2 mL DPPH (0.75 mM), compound 3 μM in ethanol, 30 minutes in the dark
# Experimental: The antioxidant activity of 6′-(4-bromophenyl)-2′-methoxy-3,4′-bipyridine-3′-carbonitrile was investigated by 2,2-diphenyl-1-picrylhydrazyl (DPPH) in vitro tests that employ vitamin C as the positive control.
# The antioxidant properties of the 6′-(4-bromophenyl)-2′-methoxy-3,4′-bipyridine-3′-carbonitrile compound were studied by adding 0.2 mL DPPH (0.75 mM)) to 6′-(4-bromophenyl)-2′-methoxy-3,4′-bipyridine-3′-carbonitrile (3 μM) (4) in ethanol. After 30 minutes of incubation in the dark, the absorbance was read against a blank at 517 nm. Ascorbic acid (vitamin C) was used as standard antioxidants (positive control). A blank sample was prepared by 0.2 mL of DPPH in 3 mL ethanol. A negative control sample was run using ethanol instead of the sample. The radical scavenging inhibition was calculated using the following equation: […]
# The antioxidant activity for the synthesized compound is listed in Table 1, using Vitamin C as a reference.
Structure (SMILES),Inhibition (radical scavenging inhibition),"antioxidant potential to vanish the DPPH radical colors, compared to vitamin C (DPPH in vitro test, vitamin C as positive control)"
"O=C1O[C@H]([C@@H](O)CO)C(O)=C1O [vit c, Ascorbic acid, reference compound]",74%,
"COc1nc(-c2ccc(Br)cc2)cc(-c2cccnc2)c1C#N [Product 4, 6′-(4-bromophenyl)-2′-methoxy-3,4′-bipyridine-3′-carbonitrile]",50%,high potential as an antioxidant compared to vitamin C

# From patent US11974995B1, “6′-(4-bromophenyl)-2′-methoxy-3,4′-bipyridine-3′-carbonitrile as an antioxidant compound” (KING FAISAL UNIVERSITY, priority 2023, dated 2024)
